Results reported in article PMC3328499 (PLoS ONE, 2012).

Tests used:
MalE-MalFGK2 complex = target: T1, MalE-MalFGK2 complex (Escherichia coli, UniProt P02916+P0AEX9+P68183+P68187, T177W/T57C); assay: Maltose affinity of transporter-bound MalE (fluorescence quenching, competitive fit and equilibrium titration); type: binding, E. coli; conditions: sugar 1 mM added to preformed complex, AMP-PNP
T1 construct: made in house; host or cells: E. coli BL21
Protocol: After incubation (10 min, 37°C), samples were analyzed by CN-PAGE and (A) autoradiography or (B) Coomassie blue staining. […] At the indicated time (arrow), 1 mM maltooligosaccharides were added to the reaction mixture. […] After incubation (10 min, 37°C), samples were analyzed by CN-PAGE and autoradiography.
Fluorescence was recorded on a Cary Eclipse spectrofluorometer at 25°C. […] Excitation and emission wavelength were 280 nm and 350 nm, respectively (10 nm slit widths). […] The fluorescence emission was monitored over time and the signal was allowed to equilibrate after each addition for 180 s.
Competitive one-site ligand binding. […] The data (Fig. 2F, red curve) were fitted to a competitive one-site binding equation, defined as: [picture]

Nd-MalFGK2 [1] = target: T2, Nd-MalFGK2 (Escherichia coli, UniProt P02916+P68183+P68187); assay: ATPase activity of MalFGK2 in nanodiscs; type: biochemical, E. coli
T2 construct: made in house; host or cells: E. coli BL21
Protocol: Figure 1 ATPase activity of the MalFGK2 complex in nanodiscs. (A) The MalFGK2 complex in nanodisc (lane 1) and detergent solution (lane 2) was analyzed by BN-PAGE and CN-PAGE followed by Coomassie blue staining of the gel. Molecular weight markers: BSA (67/134 kDa); catalase (232 kDa); ferritin (440 kDa). On CN-PAGE, the MalFGK2 complex precipitates as a protein smear at the top of the gel. […] The reported values were derived from 3 independent experiments.
(§1) Samples were analyzed by CN-PAGE and autoradiography. […] After incubation (10 min, 37°C), samples were analyzed by CN-PAGE and autoradiography. […] The reported values were derived from 3 independent experiments.
(§2) The MalFGK2 ATPase activity was determined by monitoring the release of inorganic phosphate using photo-colorimetric method. Linear gradient blue-native (BN) and colorless-native (CN) gel electrophoresis was performed as described. Sucrose gradient analysis was performed as described. MalE was iodinated using the Iodogen reagent (Pierce-Thermo Scientific). The specific activity of [^125I]-MalE was ∼2×10^5 c.p.m./μg.

Nd-MalFGK2 [2] = target: T2, Nd-MalFGK2; assay: Native-PAGE (CN-PAGE) binding of [125I]-MalE to Nd-MalFGK2; design: species or system E. coli; conditions: maltose 1 mM, AMP-PNP or ATP plus vanadate
Protocol: After incubation (10 min, 37°C), samples were analyzed by CN-PAGE followed by Coomassie blue staining (bottom part) and autoradiography (upper part). […] After incubation (10 min, 37°C), samples were analyzed by CN-PAGE followed by Coomassie blue staining (bottom part) then autoradiography (upper part). […] After incubation (10 min, 37°C), samples were analyzed by CN-PAGE and autoradiography. […] The position MalE-31 and MalF-177 are indicated in red. […] When the data were fitted to one-site binding equation, the dissociation constant in the presence of AMP-PNP was ∼79 nM.
as §1, §2

[3] = read-out: Kd of BtuF for its ligand; cited from earlier work
BtuCD = conditions: cited from earlier work
HisQM = tested on: HisQM; design: method as in PMID 8662800; conditions: cited from earlier work

T2 sequence (P68187 whole entry): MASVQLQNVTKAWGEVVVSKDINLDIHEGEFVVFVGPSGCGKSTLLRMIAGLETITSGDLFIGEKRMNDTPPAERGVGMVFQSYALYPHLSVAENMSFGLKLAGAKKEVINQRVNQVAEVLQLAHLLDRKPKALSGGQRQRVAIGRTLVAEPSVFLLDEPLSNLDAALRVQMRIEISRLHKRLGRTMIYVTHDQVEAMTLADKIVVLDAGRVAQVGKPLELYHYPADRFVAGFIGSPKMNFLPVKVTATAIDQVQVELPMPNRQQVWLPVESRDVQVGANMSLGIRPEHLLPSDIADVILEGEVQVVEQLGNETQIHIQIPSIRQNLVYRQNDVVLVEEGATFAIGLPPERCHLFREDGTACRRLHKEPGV
T2 sequence (P68183 whole entry): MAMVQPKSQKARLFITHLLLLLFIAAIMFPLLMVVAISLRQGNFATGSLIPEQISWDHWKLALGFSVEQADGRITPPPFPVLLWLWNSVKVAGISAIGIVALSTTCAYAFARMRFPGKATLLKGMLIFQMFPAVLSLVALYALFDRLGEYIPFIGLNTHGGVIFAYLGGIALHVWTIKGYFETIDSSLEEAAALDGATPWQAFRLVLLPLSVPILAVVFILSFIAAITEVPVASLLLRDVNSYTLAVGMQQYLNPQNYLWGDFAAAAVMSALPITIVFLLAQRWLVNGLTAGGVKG
T2 sequence (P02916 whole entry): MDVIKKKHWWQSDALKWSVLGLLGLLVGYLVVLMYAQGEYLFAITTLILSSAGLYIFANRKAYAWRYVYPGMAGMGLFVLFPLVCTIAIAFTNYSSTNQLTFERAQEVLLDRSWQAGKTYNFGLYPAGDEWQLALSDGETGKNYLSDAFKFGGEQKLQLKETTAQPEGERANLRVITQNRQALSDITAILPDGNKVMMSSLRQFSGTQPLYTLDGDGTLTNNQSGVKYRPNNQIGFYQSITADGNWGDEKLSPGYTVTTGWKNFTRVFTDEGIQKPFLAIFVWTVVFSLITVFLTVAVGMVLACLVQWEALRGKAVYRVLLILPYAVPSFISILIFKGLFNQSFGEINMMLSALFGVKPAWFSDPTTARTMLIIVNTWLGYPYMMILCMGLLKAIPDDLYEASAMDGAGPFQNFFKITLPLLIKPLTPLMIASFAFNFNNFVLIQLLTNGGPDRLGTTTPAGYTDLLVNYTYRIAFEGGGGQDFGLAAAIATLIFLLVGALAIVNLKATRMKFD
T1 sequence (P68187 whole entry): as the sequence (P68187 whole entry) above
T1 sequence (P68183 whole entry): as the sequence (P68183 whole entry) above
T1 sequence (P02916 whole entry T177W): as the sequence (P02916 whole entry) above, with T177W counted along it

Molecule: OC[C@H]1O[C@H](O[C@H]2[C@H](O)[C@@H](O)C(O)O[C@@H]2CO)[C@H](O)[C@@H](O)[C@@H]1O (mixture of isomers) [maltose]
- dissociation of MalE from the transporter in nanodiscs (MalE-MalFGK2 complex): rapid loss of fluorescence quenching
- effect of maltose on MalE-stimulated ATPase activity (Nd-MalFGK2 [1]; in disc and in detergent, maltose 1 mM, MalE 2 µM): significant inhibition of the ATPase activity
- effect of maltose alone on basal ATPase activity (Nd-MalFGK2 [1]; no MalE): did not effect the basal ATPase activity
- effect of maltose on binding of MalE to MalFGK2 on native-PAGE (Nd-MalFGK2 [2]): significantly reduced

B1: BtuF: substrate binding protein of the vitamin B12 transporter (protein, UniProt P37028 23-266, looked up)
Vitamin B12-binding protein: APRVITLSPANTELAFAAGITPVGVSSYSDYPPQAQKIEQVSTWQGMNLERIVALKPDLVIAWRGGNAERQVDQLASLGIKVMWVDATSIEQIANALRQLAPWSPQPDKAEQAAQSLLDQYAQLKAQYADKPKKRVFLQFGINPPFTSGKESIQNQVLEVCGGENIFKDSRVPWPQVSREQVLARSPQAIVITGGPDQIPKIKQYWGEQLKIPVIPLTSDWFERASPRIILAAQQLCNALSQVD
- Kd [3]: ~15 nM
- reduction of the BtuF-BtuCD interaction by saturating vitamin B12 (BtuCD): ~10^5 fold

B2: HisJ: binding protein of histidine transport, binds HisQM (protein, UniProt P0AEU0 23-260, looked up)
Histidine-binding periplasmic …: AIPQNIRIGTDPTYAPFESKNSQGELVGFDIDLAKELCKRINTQCTFVENPLDALIPSLKAKKIDAIMSSLSITEKRQQEIAFTDKLYAADSRLVVAKNSDIQPTVESLKGKRVGVLQGTTQETFGNEHWAPKGIEIVSYQGQDNIYSDLTAGRIDAAFQDEVAASEGFLKQPVGKDYKFGGPSVKDEKLFGVGTGMGLRKEDNELREALNKAFAEMRADGTYEKLAKKYFDFDVYGG
- reduction of binding of HisJ to HisQM by saturating histidine (HisQM): 3 fold
